≈ marks a conversion by molar mass, not a printed value. Where two headings read alike, the source gives them in different places. Starred links: 1 amine or outer side, 2 acyl side, 3 side chain; linkers in the order of their positions; H or OH if unused. Positions of bridges follow the written chain, without caps; N, C: chain ends. Non-standard residues stand in square brackets, D forms with d. Residues, ends and D or L forms follow the SMILES beside them. *: point of attachment. X3 = CN(CCCCC(=O)N[C@@H](CS[*:2])C(=O)[*:1])[*:3]; Trp(7-Me) = Cc1cccc2c(C[C@H](N)C(=O)O)c[nH]c12; 2Nal = N[C@@H](Cc1ccc2ccccc2c1)C(=O)O; AEF = NCCOc1ccc(C[C@H](N)C(=O)O)cc1; X4 = CN(CCCCCC(=O)[*:2])[*:1]; αMeL = CC(C)C[C@](C)(N)C(=O)O; Suc = O=C(CCC(=O)[*:2])[*:1]; Thp = NC1(C(=O)O)CCOCC1; Me2NCH2CH2 = CN(C)CC*; Aib = CC(C)(N)C(=O)O; Ava = NCCCCC(=O)O; βAla = NCCC(=O)O; Sar = CNCC(=O)O
Assays:
Pepsin = test system: T1, Pepsin; experiment: Protease stability in simulated gastric fluid (Pepsin-SGF, FaSSGF); assay type: in vitro ADME; conditions: simulated gastric fluid with pepsin (Pepsin-SGF), 60 min, 1 μM peptide, 37° C., read-out: FaSSGF 60 (min), remaining percent of peptide
T1 construct: purchased Merck Millipore
How it was run: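 Peptides at 1 μM final in pepsin-containing SGF at 37° C, sampled at 0, 60, 120 and 240 min, quenched with ethanol (0.1% HCOOH). Analysed by LCMS/MS; percent remaining from peak area relative to time 0 (set to 100%).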

[1] = Chemical stability assessment of peptides (relative purity loss); assay type: physicochemical; conditions: 24 hours at 37° C.; for Chemical stability (relative purity loss) Buffer pH 1.2: 50 mM HCl pH 1.2 + acetonitrile (1:1); for Chemical stability (relative purity loss) Buffer pH 6.5: 50 mM phosphate buffer pH 6.5 + acetonitrile (1:1); for Chemical stability (relative purity loss) Buffer pH 7.4: 50 mM phosphate buffer pH 7.4 + acetonitrile (1:1)
How it was run: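 Peptide solutions at 1 mg/ml (purity-corrected) in 1:1 acetonitrile with 50 mM HCl pH 1.2, or 50 mM phosphate pH 6.5 or pH 7.4, held 24 hours at 2° C. and 37° C. Supernatants analysed by UHPLC-UV; relative purity loss taken as percent drop in peak-area purity from 0 to 24 hours at 37° C.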

[2] = biological target: T2, human interleukin-23 receptor (recombinant human IL-23R-Fc chimera) (Homo sapiens, UniProt Q5VWK5); experiment: Human ELISA IL23/IL23R (assay for specific human IL23R antagonists); assay type: binding; conditions: Table 10; read-out: Human ELISA IL23/IL23R IC50
T2 construct: Fc (IgG Fc fusion)
How it was run: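 Plates coated overnight at 4 °C with human IL23 ([…]), blocked, then serially diluted peptides added with recombinant human IL-23R-Fc (0.1 μg/ml final) for 60 min at room temperature. Bound receptor detected with anti-human IgG1-HRP and fluorogenic peroxidase substrate.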

[3] = Solubility testing of peptides at different pH; assay type: physicochemical; conditions: target concentration 1 mg/ml, 2 hours agitation
How it was run: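 Solid obtained by drying down DMSO stock was taken up at 1 mg/mL in 50 mM HCl pH 1.2 or 50 mM phosphate pH 6.5, 7.4 or 9.0, agitated gently for 2 h, then filtered (0.45 μm). Solubility by UPLC-UV peak area against a DMSO reference standard curve, corrected for extinction coefficients.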

[4] = test system: IL-23 induced STAT3 signaling in HEK-Blue™ IL-23 cells; experiment: IL-23 induced STAT3 signaling in HEK-Blue IL-23 cells (SEAP reporter); assay type: cell-based; conditions: human IL23 0.25 ng/ml, read-out: pSTAT3
How it was run: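 HEK-Blue IL-23 cells (10,000/well) pre-incubated 60 min at 37 °C with serially diluted peptides, then stimulated overnight with human IL-23 (0.25 ng/ml final). STAT3-driven SEAP in supernatant detected with QUANTI-Blue after 45 min at RT (OD 620-655 nm); dose-response curves fitted.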

[5] = 50 mM HCl buffer, 50 mM HCl pH 1.2, read-out: Solubility Buffer pH 1.2
[6] = 50 mM phosphate buffer pH 6.5, read-out: Solubility Buffer pH 6.5
[7] = 50 mM phosphate buffer pH 7.4, read-out: Solubility Buffer pH 7.4
[8] = 50 mM phosphate buffer pH 9.0, read-out: Solubility Buffer pH 9.0

Compound	remaining at 1 h, 1 µM (Pepsin) [%]	Chemical stability (relative purity loss) Buffer pH 1.2 [1] [%]	Chemical stability (relative purity loss) Buffer pH 6.5 [1] [%]	Chemical stability (relative purity loss) Buffer pH 7.4 [1] [%]	IC50 [2] [nM]	solubility at 2 h [3, 5] [mg/mL]	solubility at 2 h [3, 6] [mg/mL]	solubility at 2 h [3, 7] [mg/mL]	solubility at 2 h [3, 8] [mg/mL]	IC50 [4] [nM]
CC(=O)NCCCC[C@@H]1NC(=O)[C@H](Cc2c[nH]c3c(C)cccc23)NC(=O)[C@H]([C@@H](C)O)NC(=O)[C@H](CC(N)=O)NC(=O)[C@@H]2CSSC[C@H](NC1=O)C(=O)N[C@@H](Cc1ccc(OCCN(C)C)cc1)C(=O)N[C@@H](Cc1ccc3ccccc3c1)C(=O)NC1(CCOCC1)C(=O)N[C@H](C(=O)N[C@@H](CC(N)=O)C(=O)N[C@@H](Cc1c[nH]cn1)C(=O)N(C)CC(N)=O)CCC(=O)NCCCCC(=O)N2 [compound 46] ([Ava]CNT[Trp(7-Me)]K(Ac)CY(Me2NCH2CH2)[2Nal][Thp]ENH[Sar]-NH2; disulfide 2-7; lactam N-11)	100	9.9	1.9	1.8	0.36	≥ 1.08	≥ 1.06	≥ 1.06	≥ 1.03	0.84
CC(=O)N[C@H]1CCCCNC(=O)[C@@H]2CSSC[C@H](NC(=O)[C@H](CCC(N)=O)NC(=O)[C@H](Cc3c[nH]c4ccccc34)NC1=O)C(=O)N[C@@H](Cc1ccc(OCCN)cc1)C(=O)N[C@@H](Cc1ccc3ccccc3c1)C(=O)NC1(CCOCC1)C(=O)N[C@H](C(=O)N[C@@H](CC(N)=O)C(=O)N[C@@H](CC(N)=O)C(N)=O)CCC(=O)N(C)CCCCC(=O)N2 [compound 13] (Ac-KWQC[AEF][2Nal][Thp]ENN-NH2; linker 1-4-8 via X3)	73	23.3	0.2	1.6	0.61	≥ 1.05	≥ 1.07	0.77 (≈ 456 µM)	≥ 0.99	32
CC(=O)N[C@H]1CCCCNC(=O)[C@@H]2CSSC[C@H](NC(=O)[C@H](CCC(N)=O)NC(=O)[C@H](Cc3c[nH]c4ccccc34)NC1=O)C(=O)N[C@@H](Cc1ccc(OCCN)cc1)C(=O)N[C@@H](Cc1ccc3ccccc3c1)C(=O)NC1(CCOCC1)C(=O)N[C@H](C(=O)N[C@@H](C)C(=O)NCC(N)=O)CCC(=O)N(C)CCCCC(=O)N2 [compound 17] (Ac-KWQC[AEF][2Nal][Thp]EAG-NH2; linker 1-4-8 via X3)	71	5.6	0.0	0.0	0.28	≥ 1.03	≥ 1	≥ 0.97	≥ 0.88	62
CC(=O)NCCCC[C@@H]1NC(=O)[C@H](Cc2c[nH]c3c(C)cccc23)NC(=O)[C@H]([C@@H](C)O)NC(=O)[C@H](CC(N)=O)NC(=O)[C@@H]2CSSC[C@H](NC1=O)C(=O)N[C@@H](Cc1ccc(OCCN(C)C)cc1)C(=O)N[C@@H](Cc1ccc3ccccc3c1)C(=O)N[C@@](C)(CC(C)C)C(=O)N[C@H](C(=O)N[C@@H](CC(N)=O)C(=O)N[C@@H](Cc1c[nH]cn1)C(N)=O)CCCCNC(=O)CCC(=O)N2 [compound 23] (CNT[Trp(7-Me)]K(Ac)CY(Me2NCH2CH2)[2Nal][αMeL]KNH-NH2; disulfide 1-6; linker N-10 via Suc)	69	11.3	0.0	0.0	0.26	≥ 0.97	0.98 (≈ 536 µM)	0.21 (≈ 115 µM)	0.06 (≈ 32.8 µM)	3.32
CC(=O)N[C@H]1CCCCNC(=O)[C@@H]2CSSC[C@H](NC(=O)[C@H](CCC(N)=O)NC(=O)[C@H](Cc3c[nH]c4ccccc34)NC1=O)C(=O)N[C@@H](Cc1ccc(OCCN)cc1)C(=O)N[C@@H](Cc1ccc3ccccc3c1)C(=O)NC(C)(C)C(=O)N[C@H](C(=O)N[C@@H](CC(N)=O)C(=O)N[C@@H](CC(N)=O)C(N)=O)CCC(=O)N(C)CCCCC(=O)N2 [compound 12] (Ac-KWQC[AEF][2Nal][Aib]ENN-NH2; linker 1-4-8 via X3)	53	24.5	1.1	3.6	0.59	0.31 (≈ 188 µM)	0.29 (≈ 176 µM)	0.19 (≈ 115 µM)	0.11 (≈ 66.8 µM)	27.9
CC(C)C[C@@H](NC(=O)[C@H](CC(N)=O)NC(=O)[C@@H]1CC(=O)N(C)CCCCCC(=O)N[C@H]2CSSC[C@H](NC(=O)[C@H](CCC(N)=O)NC(=O)[C@H](Cc3c[nH]c4ccccc34)NC(=O)[C@H]([C@@H](C)O)NC(=O)[C@H](CC(N)=O)NC2=O)C(=O)N[C@@H](Cc2ccc(OCCN(C)C)cc2)C(=O)N[C@@H](Cc2ccc3ccccc3c2)C(=O)N[C@@](C)(CC(C)C)C(=O)N1)C(N)=O [compound 40] ([X4]CNTWQCY(Me2NCH2CH2)[2Nal][αMeL]DN[dL]-NH2; disulfide 2-7; lactam N-11)	12	8.3	1.3	3.0	1	< 0.01	< 0.01	< 0.01	< 0.01	50.8
CC(=O)NCCCC[C@@H]1NC(=O)[C@H](Cc2c[nH]c3c(C)cccc23)NC(=O)[C@H]([C@@H](C)O)NC(=O)[C@H](CC(N)=O)NC(=O)[C@@H]2CSSC[C@H](NC1=O)C(=O)N[C@@H](Cc1ccc(OCCN(C)C)cc1)C(=O)N[C@@H](Cc1ccc3ccccc3c1)C(=O)NC1(CCOCC1)C(=O)N[C@H](C(=O)N[C@@H](CC(N)=O)C(=O)N[C@@H](Cc1c[nH]cn1)C(=O)NCCC(N)=O)CCC(=O)NCCCCC(=O)N2 [compound 49] ([Ava]CNT[Trp(7-Me)]K(Ac)CY(Me2NCH2CH2)[2Nal][Thp]ENH[βAla]-NH2; disulfide 2-7; lactam N-11)	100	11.6	1.2	1.4	0.33	≥ 1.11	≥ 1.09	≥ 1.05	≥ 1.04	1.79

Source: patent publication US20260258084A1, “New Peptides as Selective IL-23 Receptor Antagonists” (Sanofi, priority 2022, published 2026)
